Source: patent US8629163B2, “Tetrakis-quaternary ammonium salts and methods for modulating neuronal nicotinic acteylcholine receptors” (University of Kentucky Research Foundation, priority 2007, dated 2014)

Columns and labels:
[1] = molecular target: T1, α4β2 neuronal nicotinic acetylcholine receptors (Rattus norvegicus, UniProt P09483+P12390); experiment: Inhibition of [^3H]nicotine (NIC) binding to rat brain membranes; settings: % inhibition at 100 nM analog; 3 nM [^3H]NIC; nonspecific 10 μM cytisine; 3-4 independent experiments
T1 construct: The brain tissue was homogenized with a Tekmar Polytron; from tissue; host or cells: rat brain membranes (whole brain without cortex and cerebellum)
Description: (§1) Rat brain was dissected into the whole brain tissue without cortex and cerebellum and was frozen in liquid nitrogen and stored at −70° C. until use. The brain tissue was homogenized with a Tekmar Polytron (setting 40) in 20 volumes of ice-cold hypotonic buffer (2 mM HEPES, 14.4 mM NaCl, 0.15 mM KCl, 0.2 mM CaCl2 and […], pH=7.5). The homogenate was centrifuged at 25,000×g for 17 minutes at 4° C. The pellet was resuspended in 20 volumes of the same buffer, and incubated for 10 min at 37° C. The resuspension was cooled to 4° C. and then centrifuged at the above parameters. The pellet was resuspended by sonicaton and centrifuged using the same conditions. The final pellet was stored at −20° C. under 10 ml of the incubation buffer and was suspended just before incubation with radioligand.
(§2) The binding of [^3H]NIC and [^3H]MLA to probe α4β2 and α7-type neuronal nicotinic acetylcholine receptors, respectively, was determined using [^3H]NIC (67 Ci/mmol) and [^3H]MLA (60 Ci/mmol), purchased from Perkin Elmer Life Sciences, Boston, Mass., U.S.A. and American Radiolabel Chemicals, Inc., St. Louis, Mo., U.S.A. Binding was performed in duplicate, in a final volume of 250 μl of the incubation medium, containing 20 mM HEPES, 144 mM NaCl, 1.5 mM KCl, 2 mM CaCl2, and 1 mM MgSO4, pH=7.5. Reaction was initiated by the addition of 100 μL of membrane suspension to the samples containing a desired concentration of test compounds and 3 nM [^3H]NIC or 3 nM [^3H]MLA (final concentrations) and incubated for 60 min at room temperature. Total binding was measured in the absence of unlabelled ligand and nonspecific binding was determined in the presence of 10 μM cytisine, for [^3H]NIC binding, and 10 μM nicotine for [^3H]MLA. The binding reaction was terminated by dilution of samples with 3 mL of ice-cold incubation buffer followed by immediate filtration through Unifilter-96 GFB-filter plates presoaked in 0.5% polyethylenimine using a Filtermate Harvester (Perkin Elmer, Shelton, Conn., U.S.A.). Filters were rinsed five times with 350 μL of ice-cold buffer, and then filter plates were dried at 48° C. for 60 min, bottom sealed and each well filled with 40 μL of Packard Microscint-20 cocktail. After 60 min of gentle shaking, the filter plates were top sealed and radioactivity measured using a Packard TopCount NXT scintillation counter. CPMs were processed through a Packard Windows NT operating system. Protein was measured using the Bradford dye-binding procedure with bovine serum albumin as the standard.
(§3) The ability of a probe concentration of 100 nM of the tetrakis-quaternary ammonium salts to inhibit specific binding was evaluated.
(§4) ^aData are % inhibition at 100 nM concentration of analog for 3-4 independent experiments. Specific binding in the [^3H]NIC binding assay is calculated as the difference between the total binding of 3 nM [^3H]NIC and nonspecific binding in the presence of 10 μM cytisine. Specific binding for the [^3H]MLA binding assay is calculated as the difference between the total binding of 3 nM [^3H]MLA to the receptors alone and its nonspecific binding in the presence of 10 μM nicotine. Analog-induced inhibition of nicotine-evoked [^3H]DA release is calculated as a percent of that in the absence of analog.

rat striatal slices = experiment: Nicotine-evoked [^3H]dopamine release (overflow) from superfused rat striatal slices; type: cell-based; settings: for inhibition at 0.1 µM: % inhibition at 100 nM analog, 10 μM S(-)nicotine, rat striatal slices, read-out: Inhibition of Nicotine-evoked [^3H]DA release; for IC50: Rattus norvegicus, full concentration response assay, 4-5 independent experiments in duplicate, 10 μM nicotine, read-out: IC50, inhibition of nicotine-evoked [^3H]DA release (converted)
Description: Rat striatal slices (500 μm thickness, 6 mg wet weight) were incubated for 30 minutes in Krebs buffer (118 mM NaCl, 4.7 mM KCl, 1.2 mM MgCl2, 1.0 mM NaH2PO4, 1.3 mM CaCl2, 11.1 mM glucose, 25 mM NaHCO3, 0.11 mM L-ascorbic acid, and 0.004 mM disodium EDTA; pH 7.4, and saturated with 95% O2/5% CO2) in a metabolic shaker at 34° C. Slices were rinsed with 15 mL of fresh buffer and incubated for an additional 30 minutes in fresh buffer containing 0.1 μM [^3H]dopamine (DA; 6 slices/3 mL). Subsequently, slices were rinsed with 15 mL of fresh buffer and each slice transferred to a superfusion chamber. Slices were superfused (0.6 mL/min) for 60 minutes with Krebs buffer containing nomifensine (10 μM) and pargyline (10 μM) and maintained at 34° C., pH 7.4, with continual aeration (95% O2/5% CO2). Two 4-minute samples (2.4 mL each) were collected to determine basal outflow of [^3H]DA. Slices were superfused for 36 min following addition of the analogs to the superfusion buffer after the collection of the second sample and nine 4-minute samples were collected. For initial probe assays, the concentration of analog was 100 nM. For concentration-response studies, the concentration of analog varied from 1 nM to 10 μM, and the effect of each concentration was determined using striatal slices obtained from an individual animal (repeated measures design). Subsequently, S(−)nicotine (10 μM) was added to the buffer and nine additional 4-minute samples were collected. At the end of the experiment, each slice was solubilized and the [^3H] content of the tissue determined.
Radioactivity in the superfusate and tissue samples was determined by liquid scintillation spectroscopy. Fractional release for tritium collected in each sample was divided by the total tritium present in the tissue at the time of sample collection and was expressed as a percentage of total tritium. Basal [^3H]outflow was calculated from the average of the tritium collected in the two […] samples just before addition of the analog. The sum of the increase in collected tritium resulting from either exposure to the test compound or exposure to S(−)nicotine in the absence and presence of the test compound equaled total [^3H]overflow. [^3H]Overflow was calculated by subtracting the [^3H]outflow during an equivalent period of prestimulation from the values in samples collected during and after drug exposure. Inasmuch as the radiolabelled compounds were not separated and identified, the tritium collected in superfusate is referred to as either [^3H]outflow or [^3H]overflow, rather than as [^3H]DA. [^3H]Overflow primarily represents [^3H]DA in the presence of nomifensine and pargyline in the superfusion buffer. […]
Analogs were also evaluated for their ability to inhibit NIC evoked [^3H]DA release. Antagonist activity was evaluated by comparing the NIC-evoked [^3H]overflow in the absence and presence of the analogs (see Table 1). […] Data are expressed as M±SEM. Control represents absence of compound. N=4/analog, *p<0.05
as §4
^bIC50 from full concentration response assay; data from 4-5 independent experiments, each performed in duplicate.

[2] = molecular target: T2, α7-type neuronal nicotinic acetylcholine receptors (Rattus norvegicus, UniProt Q05941); experiment: Inhibition of [^3H]methyllycaconitine (MLA) binding to rat brain membranes; settings: % inhibition at 100 nM analog; 3 nM [^3H]MLA; nonspecific 10 μM nicotine; 3-4 independent experiments
T2 construct: The brain tissue was homogenized with a Tekmar Polytron; from tissue; host or cells: rat brain membranes (whole brain without cortex and cerebellum)
Description: as §1, §2, §3, §4

T1 sequence (P09483 31-630): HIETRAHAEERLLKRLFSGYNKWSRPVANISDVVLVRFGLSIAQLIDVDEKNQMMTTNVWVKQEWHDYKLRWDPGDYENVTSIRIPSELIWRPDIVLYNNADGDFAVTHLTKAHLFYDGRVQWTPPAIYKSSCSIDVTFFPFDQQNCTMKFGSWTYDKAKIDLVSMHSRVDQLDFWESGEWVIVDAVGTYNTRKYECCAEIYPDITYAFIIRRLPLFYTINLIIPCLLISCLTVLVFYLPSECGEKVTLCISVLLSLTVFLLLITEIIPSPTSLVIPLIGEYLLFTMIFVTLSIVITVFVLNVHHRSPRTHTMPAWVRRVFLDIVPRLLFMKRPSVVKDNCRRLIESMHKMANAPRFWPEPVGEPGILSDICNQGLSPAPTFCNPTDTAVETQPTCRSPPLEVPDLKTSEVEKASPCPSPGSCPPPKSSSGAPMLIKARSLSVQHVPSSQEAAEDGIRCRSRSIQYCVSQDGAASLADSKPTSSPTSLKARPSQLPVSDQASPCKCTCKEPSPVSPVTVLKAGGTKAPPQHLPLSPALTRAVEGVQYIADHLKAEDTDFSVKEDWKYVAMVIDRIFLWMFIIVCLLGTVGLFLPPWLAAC
T1 sequence (P12390 25-500): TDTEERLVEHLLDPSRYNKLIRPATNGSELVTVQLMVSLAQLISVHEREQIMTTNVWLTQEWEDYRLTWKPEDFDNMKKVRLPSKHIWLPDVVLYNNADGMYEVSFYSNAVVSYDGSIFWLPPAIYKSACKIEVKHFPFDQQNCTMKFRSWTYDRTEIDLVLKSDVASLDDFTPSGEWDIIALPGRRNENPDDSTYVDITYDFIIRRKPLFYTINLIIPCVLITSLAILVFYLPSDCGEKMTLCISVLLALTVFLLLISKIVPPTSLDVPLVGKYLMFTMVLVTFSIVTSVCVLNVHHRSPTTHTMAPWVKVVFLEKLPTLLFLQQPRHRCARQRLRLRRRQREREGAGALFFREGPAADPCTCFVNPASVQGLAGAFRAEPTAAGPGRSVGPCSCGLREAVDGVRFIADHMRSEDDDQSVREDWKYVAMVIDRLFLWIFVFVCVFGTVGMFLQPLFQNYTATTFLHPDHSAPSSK
T2 sequence (Q05941 23-502): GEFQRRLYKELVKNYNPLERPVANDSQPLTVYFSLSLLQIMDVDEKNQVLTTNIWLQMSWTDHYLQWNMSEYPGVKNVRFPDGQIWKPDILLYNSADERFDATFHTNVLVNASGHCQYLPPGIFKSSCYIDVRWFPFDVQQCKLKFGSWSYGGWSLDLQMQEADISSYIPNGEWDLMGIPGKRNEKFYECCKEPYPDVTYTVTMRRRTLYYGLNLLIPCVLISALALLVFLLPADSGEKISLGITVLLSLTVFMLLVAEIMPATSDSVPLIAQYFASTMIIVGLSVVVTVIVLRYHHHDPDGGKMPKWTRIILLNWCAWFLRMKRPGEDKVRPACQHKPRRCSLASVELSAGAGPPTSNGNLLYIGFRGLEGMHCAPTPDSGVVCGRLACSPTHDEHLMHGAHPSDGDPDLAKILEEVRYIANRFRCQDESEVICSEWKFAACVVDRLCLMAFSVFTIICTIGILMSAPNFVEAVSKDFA

SMILES	Inhibition of [^3H]Nicotine binding [1] [%]	inhibition at 0.1 µM (rat striatal slices) [%]	Inhibition of [^3H]MLA binding [2] [%]	IC50 (rat striatal slices) [µM]
Cc1cc[n+](CCCCCc2cc(CCCCC[n+]3ccc(C)c(C)c3)c(CCCCC[n+]3ccc(C)c(C)c3)cc2CCCCC[n+]2ccc(C)c(C)c2)cc1C.[Br-].[Br-].[Br-].[Br-]	0.5 ± 0.5	36 ± 11	18 ± 10	–
C(#Cc1cc(C#CCCC[n+]2cccc(Cc3ccccc3)c2)c(C#CCCC[n+]2cccc(Cc3ccccc3)c2)cc1C#CCCC[n+]1cccc(Cc2ccccc2)c1)CCC[n+]1cccc(Cc2ccccc2)c1.[Br-].[Br-].[Br-].[Br-]	2.9 ± 2.9	17 ± 17	53 ± 3.5	–
CN1CCCC1c1ccc[n+](CCCC#Cc2cc(C#CCCC[n+]3cccc(C4CCCN4C)c3)c(C#CCCC[n+]3cccc(C4CCCN4C)c3)cc2C#CCCC[n+]2cccc(C3CCCN3C)c2)c1.[Br-].[Br-].[Br-].[Br-] (stereo not drawn)	38 ± 7.4	31 ± 13	15 ± 2.0	–
Cc1cc[n+](CCCC#Cc2cc(C#CCCC[n+]3ccc(C)cc3)c(C#CCCC[n+]3ccc(C)cc3)cc2C#CCCC[n+]2ccc(C)cc2)cc1.[Br-].[Br-].[Br-].[Br-]	24 ± 5.5	35 ± 14	3.0 ± 3.0	–
Cc1cc(C)c[n+](CCCC#Cc2cc(C#CCCC[n+]3cc(C)cc(C)c3)c(C#CCCC[n+]3cc(C)cc(C)c3)cc2C#CCCC[n+]2cc(C)cc(C)c2)c1.[Br-].[Br-].[Br-].[Br-]	0 ± 05	12 ± 5	3.9 ± 3.9	–
OCCCc1ccc[n+](CCCCCc2cc(CCCCC[n+]3cccc(CCCO)c3)c(CCCCC[n+]3cccc(CCCO)c3)cc2CCCCC[n+]2cccc(CCCO)c2)c1.[Br-].[Br-].[Br-].[Br-]	9.6 ± 5.2	64 ± 15	20 ± 13	0.00338
C(#Cc1cc(C#CCCC[n+]2cccc(-c3ccccc3)c2)c(C#CCCC[n+]2cccc(-c3ccccc3)c2)cc1C#CCCC[n+]1cccc(-c2ccccc2)c1)CCC[n+]1cccc(-c2ccccc2)c1.[Br-].[Br-].[Br-].[Br-]	0.3 ± 0.3	37 ± 15	53 ± 0.8	–
OCCCc1ccc[n+](CCCC#Cc2cc(C#CCCC[n+]3cccc(CCCO)c3)c(C#CCCC[n+]3cccc(CCCO)c3)cc2C#CCCC[n+]2cccc(CCCO)c2)c1.[Br-].[Br-].[Br-].[Br-]	0 ± 0	41 ± 15	5.7 ± 5.7	–
[Br-].[Br-].[Br-].[Br-].c1ccc(Cc2ccc[n+](CCCCCc3cc(CCCCC[n+]4cccc(Cc5ccccc5)c4)c(CCCCC[n+]4cccc(Cc5ccccc5)c4)cc3CCCCC[n+]3cccc(Cc4ccccc4)c3)c2)cc1	13 ± 3.3	54 ± 10	16 ± 8	0.028
C(#Cc1cc(C#CCCC[n+]2ccc3c(c2)CCCC3)c(C#CCCC[n+]2ccc3c(c2)CCCC3)cc1C#CCCC[n+]1ccc2c(c1)CCCC2)CCC[n+]1ccc2c(c1)CCCC2.[Br-].[Br-].[Br-].[Br-]	9.7 ± 9.7	24 ± 14	17 ± 8.9	–
CN1CCCC1c1ccc[n+](CCCCCc2cc(CCCCC[n+]3cccc(C4CCCN4C)c3)c(CCCCC[n+]3cccc(C4CCCN4C)c3)cc2CCCCC[n+]2cccc(C3CCCN3C)c2)c1.[Br-].[Br-].[Br-].[Br-] (stereo not drawn)	7.4 ± 4.7	43 ± 21	26 ± 14	–
Cc1ccc[n+](CCCCCc2cc(CCCCC[n+]3cccc(C)c3)c(CCCCC[n+]3cccc(C)c3)cc2CCCCC[n+]2cccc(C)c2)c1.[Br-].[Br-].[Br-].[Br-]	12 ± 4.4	8 ± 4	12 ± 6.9	–
[Br-].[Br-].[Br-].[Br-].c1ccc2c[n+](CCCCCc3cc(CCCCC[n+]4ccc5ccccc5c4)c(CCCCC[n+]4ccc5ccccc5c4)cc3CCCCC[n+]3ccc4ccccc4c3)ccc2c1	6.5 ± 6.5	63 ± 12	24 ± 13	0.056
C(#Cc1cc(C#CCCC[n+]2ccc3ccccc3c2)c(C#CCCC[n+]2ccc3ccccc3c2)cc1C#CCCC[n+]1ccc2ccccc2c1)CCC[n+]1ccc2ccccc2c1.[Br-].[Br-].[Br-].[Br-]	0 ± 0	39 ± 17	4.9 ± 3.8	–
Cc1cc[n+](CCCCCc2cc(CCCCC[n+]3ccc(C)cc3)c(CCCCC[n+]3ccc(C)cc3)cc2CCCCC[n+]2ccc(C)cc2)cc1.[Br-].[Br-].[Br-].[Br-]	12 ± 8.3	46 ± 5	8.0 ± 5.3	–
Cc1ccc[n+](CCCC#Cc2cc(C#CCCC[n+]3cccc(C)c3)c(C#CCCC[n+]3cccc(C)c3)cc2C#CCCC[n+]2cccc(C)c2)c1.[Br-].[Br-].[Br-].[Br-]	11 ± 11	16 ± 13	18 ± 7.8	–
Cc1cc(C)c[n+](CCCCCc2cc(CCCCC[n+]3cc(C)cc(C)c3)c(CCCCC[n+]3cc(C)cc(C)c3)cc2CCCCC[n+]2cc(C)cc(C)c2)c1.[Br-].[Br-].[Br-].[Br-]	3.7 ± 3.7	45 ± 14	15 ± 8	–
